For assay [1], the system named is E. coli K-12 MG1655. In words: E. coli growth inhibition (growth curves, OD595). The class given is cell-based. The settings on record: 22.4 µM, approx. 10^7 CFU/ml, LB medium, 37°C with shaking, OD595 every 20 min for 7 h 20 min, PBS negative control, Figure 2. The protocol: The E. coli K-12 MG1655 strain was first inoculated into LB medium and incubated at 37°C with shaking for 16 h. After incubation, the culture was diluted to approximately 10^7 CFU/ml using LB medium. Then, 22.4 µM of N-terminal biotinylated LfcinB (Kelowna Inc.), LfcinB (Kelowna Inc.) or biotin (Thermo) were individually added to the diluted cultures in a 96-well plate. PBS was used as a negative control. Finally, each compound or PBS with E. coli was incubated at 37°C with shaking and the growth curves were observed by measuring the OD595 value every 20 min for 7 h 20 min in a microplate reader (Synergy 2, BioTek®).

For assay [2], the system named is E. coli K-12 proteins (E. coli proteome chip). In words: E. coli proteome chip assay. The assay is classed as binding. The settings on record: 10 nM N-terminal biotinylated LfcinB, 1% BSA, room temperature, 1 h; ratio DyLight 649 to DyLight 549, ProCAT local cut-off; triplicate. The protocol: To fabricate the proteome chips, E. coli K-12 proteins were expressed and purified in a high-throughput fashion. The procedure was modified from Chen et al.. Briefly, E. coli protein expression clones fused with a 6×-His tag, provided by Dr. Mori, were first incubated with glass beads (Biospec Products Inc.) in 2× LB medium containing 30 µg/ml chloramphenicol in 96 DeepWell™ plates (Nunc) at 37°C overnight. The overnight cultures were then diluted with 2× LB that contains 30 µg/ml chloramphenicol to the OD595 value of 0.1. When the cells grew to an OD595 value of 0.7–0.9, 500 µM of isopropyl β-D-thiogalactoside (IPTG) was added to induce protein expression at 37°C for ∼3.5 h. The cultures were then harvested by centrifugation at 3220 g for 5 min at 4°C, and the pellets were stored at −80°C before purification. […]
For image processing of chip assay results, Genepix Pro 6.0 was used to align the protein spot of each individual protein and then all aligned protein image signals were exported as a text file. The text file was analyzed by ProCAT [17], a signal normalization method. The relative ability of LfcinB to bind to each protein was estimated by the ratio of the fluorescence intensity of LfcinB to the fluorescence intensity of an anti-His antibody after the normalization. […]

“Also recorded” adds a separate entry of the source. Ends that are not written are not given here. * marks the point of attachment. Biotin = O=C1N[C@H]2[C@H](CS[C@H]2CCCCC(=O)*)N1

`O=C(O)CCCC[C@@H]1SC[C@@H]2NC(=O)N[C@@H]21` [biotin, reference compound]: the “growth curves / inhibition of E. coli growth” value in assay [1] is “had no influence on E. coli growth”.
In the case of “biotinylated LfcinB: N-terminal biotinylated LfcinB (Kelowna Inc.), used as probe in chip assays (Biotin-FKCRRWQWRMKKLGAPSITCVRRAF; ends and bridges not checked)”, the “growth curves / inhibition of E. coli growth” value in assay [1] is “exhibited the same inhibition of E. coli growth; also recorded: exhibit the same antibacterial activity”. Further, in assay [2], the “number of proteins selected as LfcinB-binding (top 5% of the E. coli proteome, membrane proteins ruled out)” value is on record as 153 proteins.

The values are drawn from PMC3229523, “Identification of Lactoferricin B Intracellular Targets Using an Escherichia coli Proteome Chip” (PLoS ONE, 2011).
